{"source": "PubChem BioAssay AID489027", "about": "(Sanford-Burnham Center for Chemical Genomics, 2010)", "note": "Calls of active or inactive are those of the source. How the calls were made is not given here.", "data": [{"target": "UPR counterscreen luciferase reporter, luminescence", "experiment": "luciferase reporter activation, UPR counterscreen line – cell-based, luminescence, counter-screen for adaptive UPR activator project, dose response (AID 489027)", "values": [{"smiles": "CC1(C)C[C@H](O)[C@]2(CO)[C@H](O)C[C@]3(C)C(=CCC4[C@@]5(C)CC[C@H](O)C(C)(C)C5CC[C@]43C)[C@@H]2C1", "note": "(stereo partly specified)", "EC50": "> 80 µM (inactive)"}, {"smiles": "NS(=O)(=O)c1ccc(N/N=C/c2cn(-c3ccccc3)nc2-c2ccccc2)c([N+](=O)[O-])c1", "EC50": "7.34 µM"}, {"smiles": "COc1cc2c(cc1NC(=S)NC(=O)/C=C/c1ccco1)oc1ccccc12", "EC50": "inactive"}, {"smiles": "Cc1cc(SCC(=O)c2ccc(O)c(O)c2)n2nc(C)c(-c3ccccc3)c2n1", "EC50": "> 80 µM (inactive)"}, {"smiles": "Fc1ccc(Nc2nc(NCc3ccco3)c3ccccc3n2)cc1", "EC50": "> 80 µM (inactive)"}, {"smiles": "COc1cc2[nH]c3c(N4CCN(c5ccc(Cl)cc5)CC4)ncnc3c2cc1OC", "EC50": "> 80 µM (inactive)"}]}]}
